Assay results: patent US12162892B2, “CD16a binding agents and uses thereof” (KLEO PHARMACEUTICALS, INC., priority 2018, dated 2024)
Several values for one entry are separate records, joined by “and”; a condition that tells them apart may be missing. Equal values may be shown once.

Columns and labels:
Format in all cases: binding
CD16a158F [1] = target: T1, CD16a158F (Homo sapiens, UniProt P08637); experiment: Microscale Thermophoresis; design: purchased Acro Biosystems CDA-H82E8; settings: read-out: MST-CD16a158F KD
T1 sequence (P08637 17-208 limits assumed): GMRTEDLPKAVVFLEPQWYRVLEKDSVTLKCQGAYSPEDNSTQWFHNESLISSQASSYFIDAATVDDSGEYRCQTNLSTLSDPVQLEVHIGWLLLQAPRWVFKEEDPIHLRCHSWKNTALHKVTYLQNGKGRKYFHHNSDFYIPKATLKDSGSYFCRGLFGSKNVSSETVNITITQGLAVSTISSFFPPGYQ
Experimental: Target proteins (poly-histidine tagged, 600 nM) were fluorescently labeled combination with an equal volume of dye (200 nM, His-Tag labeling kit RED-tris-NTA NanoTemper: MO-L008) PBST. The mixture rotated in the dark for 45 min before being spun down at 12000 rpm for 15 min to remove uncomplexed material. The fluorescence of the removed supernatant was adjusted to for a test concentration of 40-80 nM (2× the final measured). Test ligands were prepared across a 12-point dilution series in a 96-well PCR plate at a volume of 20 uL at 2× the concentration desired for testing (0.2% BSA in PBST). The dilution series was then combined with an equal volume of the labeled target at 2× the concentration desired for testing. Capillaries were added to the wells of the combined target/ligand complex and measured by MST. Measurements were taken using a Nanotemper Monolith NT.115, and the data was analyzed using NanoTemper MO.Control software.

CD16a158F [2] = target: T1, CD16a158F; experiment: Biotinylated Ligand ELISA Assay; design: purchased Acro Biosystems CDA-H82E8; settings: Biotinylated CD16a protein at 10 nM
Procedure, shortened: (§1)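 Neutravidin-coated plates, BSA-blocked, loaded with biotinylated ligands 1 h at 25° C., free sites blocked with 100 μM biotin. Bound protein detected with streptavidin-HRP 1 h at 25° C. and chemiluminescent substrate for 5 min; luminescence read.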

[3] = Biotin ELISA, No Protein (Example 55); settings: three replicate values per compound
Procedure, shortened: (§2)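 Capture surface: neutravidin at 5 μg/ml, BSA-blocked, carrying biotinylated ligand diluted in PBSTB with 1 h incubations at 25° C and gentle shaking. Unoccupied sites were blocked using biotin at 100 μM. Read-out was luminescence from HRP substrate.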

CD16a158F [4] = target: T1, CD16a158F; experiment: Biotin ELISA, interaction with various receptors (Example 55); settings: three replicate values per compound
Procedure, shortened: as §2

CD32a-R167 [5] = experiment: as above; settings: three replicate values per compound
Procedure, shortened: as §2

CD16a158V [6] = target: T2, CD16a158V (Homo sapiens, UniProt P08637, F176V); experiment: as above; settings: three replicate values per compound
T2 sequence (P08637 17-208 F176V): as the sequence (P08637 17-208 limits assumed) above, with F160V counted along it
Procedure, shortened: as §2

CD3ed [7] = target: T3, CD3ed (Homo sapiens, UniProt P04234+P07766); experiment: as above; settings: three replicate values per compound
T3 sequence (P07766 23-126 limits assumed): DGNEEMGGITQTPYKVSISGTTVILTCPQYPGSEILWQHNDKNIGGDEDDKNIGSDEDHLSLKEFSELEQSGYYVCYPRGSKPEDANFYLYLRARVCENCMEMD
T3 sequence (P04234 22-105 limits assumed): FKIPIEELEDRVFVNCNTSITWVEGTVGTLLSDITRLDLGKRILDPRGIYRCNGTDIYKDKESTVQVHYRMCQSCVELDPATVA
Procedure, shortened: as §2

CD64 = CD64 (Homo sapiens, UniProt P12314); experiment: as above; settings: three replicate values per compound
Chain of CD64 (P12314 16-374): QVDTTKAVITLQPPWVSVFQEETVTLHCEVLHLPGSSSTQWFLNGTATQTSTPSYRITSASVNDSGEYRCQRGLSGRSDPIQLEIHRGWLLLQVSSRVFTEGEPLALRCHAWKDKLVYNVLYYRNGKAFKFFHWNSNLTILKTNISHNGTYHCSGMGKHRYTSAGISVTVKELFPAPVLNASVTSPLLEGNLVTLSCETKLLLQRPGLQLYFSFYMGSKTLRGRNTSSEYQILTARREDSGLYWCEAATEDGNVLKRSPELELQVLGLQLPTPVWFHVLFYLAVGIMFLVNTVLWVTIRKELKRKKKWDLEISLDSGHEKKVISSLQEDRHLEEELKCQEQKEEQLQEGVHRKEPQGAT
Procedure, shortened: as §2

CD32b [8] = target: T4, CD32b (Homo sapiens, UniProt P31994); experiment: as above; settings: three replicate values per compound
T4 sequence (P31994 43-310): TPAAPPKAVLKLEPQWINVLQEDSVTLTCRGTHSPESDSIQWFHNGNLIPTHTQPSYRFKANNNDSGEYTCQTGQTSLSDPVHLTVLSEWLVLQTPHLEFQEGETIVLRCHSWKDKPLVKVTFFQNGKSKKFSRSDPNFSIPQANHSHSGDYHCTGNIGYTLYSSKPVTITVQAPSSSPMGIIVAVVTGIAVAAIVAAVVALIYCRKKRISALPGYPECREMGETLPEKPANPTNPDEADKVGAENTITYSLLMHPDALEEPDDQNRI
Procedure, shortened: as §2

CD32a H167 [9] = target: T5, CD32a H167 (Homo sapiens, UniProt P12318); experiment: as above; settings: three replicate values per compound
T5 sequence (P12318 36-218 limits assumed): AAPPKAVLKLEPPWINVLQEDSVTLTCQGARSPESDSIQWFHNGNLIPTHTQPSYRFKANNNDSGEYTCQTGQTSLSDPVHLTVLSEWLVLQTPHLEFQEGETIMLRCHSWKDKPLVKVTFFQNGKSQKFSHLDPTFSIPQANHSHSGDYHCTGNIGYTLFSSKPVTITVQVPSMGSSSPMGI
Procedure, shortened: as §2

CD16a158V [10] = target: T2, CD16a158V; experiment: Biotinylated Ligand ELISA Assay; settings: Biotinylated CD16a protein at 10 nM
Procedure, shortened: as §1

CD16a158F [11] = target: T1, CD16a158F; experiment: MATE ELISA, interaction with various receptors (Example 55); settings: Table 11; three replicate values
Experimental: (§3) Coat ELISA plates (Costar 3922) using Neutravidin (Thermo 31000) at 5 μg/ml in PBS (100 μl/well) for 1 hour at 37° C. Plates were washed 4 times with PBST (PBS, 0.05% Tween 20-200 μl, 1 minute/wash) then blocked using 200 μl 5% bovine serum albumin (BSA, Heat Shock, Fraction V-American Bio AB01088-00100) in PBST for 2 hours at 25° C. with moderate shaking. BSA was removed and plates were washed. […] Protein was removed and plates were washed. MATE labeled antibodies diluted to 1 μg/ml in PBSTB (100 μl/well) were added and incubated for 1 hour at 25° C. with gentle shaking. Wash plates. HRP labeled Mouse Anti-Human IgG, F(ab′)2 (Jackson Immuno Research 209-035-097) diluted 1:2500 in PBSTB was added (100 μl/well) and incubated for 1 hour at 25° C. with gentle shaking. Wash plates. Substrate (Super Signal ELISA Pico Chemiluminescent Substrate-Thermo 37069) was added (100 μl/well) and plates were incubated for 5 minutes at 25° C. with gentle shaking. Luminescence was then measured on the Biotek Synergy H1 microplate reader.
(§4) In some embodiments, “stock” is antibody only, and “control” is an antibody that went through the same procedure except using DMSO only as opposed to a compound. When contacted with targeting moieties such as antibodies in the Examples, compounds, e.g., I-95, I-96, etc. can react through their reactive groups
(§5) [drawing 887] with reactive groups of targeting moieties (e.g., —NH2) to form conjugates by forming amide groups (—C(O)NH—).

CD32a-R167 [12] = experiment: as above; settings: Table 11; three replicate values
Experimental: as §3, §4, §5

CD16a 158V = experiment: as above; settings: Table 11; three replicate values
Experimental: as §3, §4, §5

CD3ed [13] = target: T3, CD3ed; experiment: as above; settings: Table 11; three replicate values
Experimental: as §3, §4, §5

CD16b = CD16b (Homo sapiens, UniProt O75015); experiment: as above; settings: Table 11; three replicate values
Chain of CD16b (O75015 17-200): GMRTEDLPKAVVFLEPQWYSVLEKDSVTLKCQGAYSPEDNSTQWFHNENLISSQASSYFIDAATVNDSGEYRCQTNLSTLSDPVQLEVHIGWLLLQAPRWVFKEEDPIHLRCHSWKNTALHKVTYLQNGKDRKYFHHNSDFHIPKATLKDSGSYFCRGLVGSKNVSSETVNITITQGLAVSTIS
Experimental: as §3, §4, §5

CD32b [14] = target: T4, CD32b; experiment: as above; settings: Table 11; three replicate values
Experimental: as §3, §4, §5

CD38 = CD38 (Homo sapiens, UniProt P28907); experiment: as above; settings: Table 11; three replicate values
Experimental: as §3, §4, §5

CD32a H167 [15] = target: T5, CD32a H167; experiment: as above; settings: Table 11; three replicate values
Experimental: as §3, §4, §5

CD16a158F [16] = target: T1, CD16a158F; experiment: CD16a-MATE ELISA; design: purchased Acro Biosystems CDA-H82E8; settings: Carbohydrate Conjugated MATEs; relative to Rituximab; Antibodies tested at 2 ug/mL
CD16a158V [17] = experiment: CD16a-MATE ELISA; settings: Carbohydrate Conjugated MATEs; relative to Rituximab; Antibodies tested at 2 ug/mL

With `O=C(CCCC[C@@H]1SC[C@@H]2NC(=O)N[C@@H]21)NCCOCCOCCOCCOCCOCCOCCOCCOCCC(=O)N1CCC(N2CC(=O)N(c3ccccc3)C2=O)CC1` [Compound I-30] the Kd (CD16a158F [1]) was > 1000 nM.
In the case of `O=C(CCCC[C@@H]1SC[C@@H]2NC(=O)N[C@@H]21)NCCOCCOCCOCCOCCOCCOCCOCCOCCn1cc(-c2ccc(NC(=O)C3CC(=O)N(c4cc(F)ccc4F)C3)cc2)nn1` (stereo partly shown) [Compound I-31], the “Biotinylated Ligand ELISA-CD16a158F Binding (RLU)” value (CD16a158F [2]) is reported as “C (a relative luminescence value (RLU) of 1,000-10,000)”, the “Biotin ELISA Results No Protein” value [3] is reported as 2129 and 3223 and 1542 and the Kd (CD16a158F [1]) is reported as 500 to 1000 nM. For the same compound, the “Biotin ELISA Results CD16a-158F” value (CD16a158F [4]) was 1915 and 592 and 1294, the “Biotin ELISA Results CD32a-R167” value (CD32a-R167 [5]) was 4134 and 3245 and 4916 and the “Biotin ELISA Results CD16a-158V” value (CD16a158V [6]) was 2241 and 1940 and 2108. The “Biotin ELISA Results CD3ed” value (CD3ed [7]) was 2134 and 3894 and 2741, the “Biotin ELISA Results CD64” value (CD64) was 68732 and 70002 and 48114 and the “Biotin ELISA Results CD32b” value (CD32b [8]) was 3983 and 3476 and 6119. The “Biotin ELISA Results CD32a-H167” value (CD32a H167 [9]) was 3965 and 4173 and 4715 and the “Biotinylated Ligand ELISA-CD16a158V Binding (RLU)” value (CD16a158V [10]) was “C (a relative luminescence value (RLU) of 1,000-10,000)”.
With “Daratumumab Control: "'control' is an antibody that went through the same procedure except using DMSO only as opposed to a compound"” the “MATE ELISA Results CD16a 158F” value (CD16a158F [11]) was 82022 and 81780 and 84907, the “MATE ELISA Results CD32a R157” value (CD32a-R167 [12]) was 125444 and 122409 and 116704 and the “MATE ELISA Results CD16a 158V” value (CD16a 158V) was 1407940 and 1365053 and 1337882. The “MATE ELISA Results CD3ed” value (CD3ed [13]) was 219 and 257 and 505, the “MATE ELISA Results CD16b” value (CD16b) was 3125 and 3086 and 3079 and the “MATE ELISA Results CD32b” value (CD32b [14]) was 9479 and 9358 and 9228. For the same compound, the “MATE ELISA Results CD38” value (CD38) was 2893900 and 2774268 and 2739576 and the “MATE ELISA Results CD32a H167” value (CD32a H167 [15]) was 485766 and 481839 and 470053.
With Rituximab (UDP-GalNAz labeled) the “CD16a158F Normalized* Response (%)” value (CD16a158F [16]) was “C (an ELISA result of 15-25% relative to Rituximab)” and the “CD16a158V Normalized* Response (%)” value (CD16a158V [17]) was “C (an ELISA result of 15-25% relative to Rituximab)”.
